Measurements as given in patent US11840686B2, “Modulation of prekallikrein (PKK) expression” (Ionis Pharmaceuticals, Inc., priority 2013, dated 2023).
Strand notation (5' to 3'): a small letter for the sugar, then the base; units joined by * are phosphorothioate-linked, units joined directly phosphodiester-linked; [ ] holds rarer units or linkages, { } end groups; capitals alone tell only the bases. e = 2'-O-(2-methoxyethyl) (MOE); k = constrained ethyl (cEt); [5mC] = 5-methylcytosine; d = 2'-deoxy (DNA)

Test system: human PKK mRNA
Assay: Antisense inhibition of human PKK mRNA in HepaRG cells, 1,000 nM, MOE/deoxy/cEt oligonucleotides (Example 3)
Type: cell-based
Settings: HepaRG cells, electroporation with 1,000 nM antisense oligonucleotide, approximately 24 hours, primer probe set RTS3454, relative to untreated control cells; experiment of Table 24
Outline: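 HepaRG cells at 20,000 per well electroporated with 1,000 nM 16-mer MOE/cEt/deoxy gapmers (phosphorothioate, 5-methylcytosine). After about 24 h, PKK mRNA measured by qRT-PCR with primer probe set RTS3454, normalized to RIBOGREEN total RNA. Reported as percent inhibition versus untreated cells.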

First: 548041 (eT*eG*kT*dG*dA*dG*dA*dA*dA*dG*dG*dT*dG*kT*kA*eT; antisense) [compound 548041]
Second: 548042 (eT*eT*kT*dG*dT*dG*dA*dG*dA*dA*dA*dG*dG*kT*kG*eT; antisense) [compound 548042]
The “% inhibition” value of the first is higher: 64% for the first, 63% for the second.

Going from “548044 (eT*eG*kG*dT*dG*dA*dA*dT*dA*dA*dT*dA*dA*kT*k[5mC]*eT; antisense) [compound 548044]” to “548045 (eT*eT*kA*dT*dA*dG*dT*dT*dT*dT*dG*dG*dT*kG*kA*eA; antisense) [compound 548045]”, the “% inhibition” value falls from 12% to 0%.

Going from “548049 (eG*e[5mC]*kG*dA*dT*dA*dT*d[5mC]*dA*dT*dG*dA*dT*kT*k[5mC]*e[5mC]; antisense) [compound 548049]” to “548050 (eA*eG*kG*d[5mC]*dG*dA*dT*dA*dT*d[5mC]*dA*dT*dG*kA*kT*eT; antisense) [compound 548050]”, the “% inhibition” value falls from 62% to 37%.

Compared with “548051 (eA*eA*kG*dG*d[5mC]*dG*dA*dT*dA*dT*d[5mC]*dA*dT*kG*kA*eT; antisense) [compound 548051]”, “548052 (e[5mC]*eA*kA*dA*dG*dG*dA*dG*d[5mC]*d[5mC]*dT*dG*dG*kA*kG*eT; antisense) [compound 548052]” is lower in “% inhibition” value: 61% for the first, 43% for the second.

Compared with “548053 (eA*eT*kT*d[5mC]*dA*dA*dA*dG*dG*dA*dG*d[5mC]*d[5mC]*kT*kG*eG; antisense) [compound 548053]”, “548054 (eA*eA*kT*dT*d[5mC]*dA*dA*dA*dG*dG*dA*dG*d[5mC]*k[5mC]*kT*eG; antisense) [compound 548054]” is higher in “% inhibition” value: 36% for the first, 45% for the second.

First: 548056 (eG*eT*kG*dT*dA*dA*dT*dT*d[5mC]*dA*dA*dA*dG*kG*kA*eG; antisense) [compound 548056]
Second: 548057 (e[5mC]*eA*kT*dA*dT*dT*dG*dG*dT*dT*dT*dT*dT*kG*kG*eA; antisense) [compound 548057]
The “% inhibition” value of the first is lower: 40% for the first, 49% for the second.

First: 548058 (eG*e[5mC]*kA*dT*dA*dT*dT*dG*dG*dT*dT*dT*dT*kT*kG*eG; antisense) [compound 548058]
Second: 548059 (eT*eA*kG*dG*d[5mC]*dA*dT*dA*dT*dT*dG*dG*dT*kT*kT*eT; antisense) [compound 548059]
The “% inhibition” value of the first is higher: 71% for the first, 50% for the second.

Compared with “548060 (e[5mC]*eT*kT*dG*dT*dG*dT*d[5mC]*dA*d[5mC]*d[5mC]*dT*dT*kT*kG*eG; antisense) [compound 548060]”, “548062 (eA*eT*kA*dA*dA*dT*dT*dG*dT*dG*d[5mC]*dT*dT*kG*kT*eG; antisense) [compound 548062]” is lower in “% inhibition” value: 76% for the first, 19% for the second.

Compared with “548063 (eG*eT*kA*dT*dA*dA*dA*dT*dT*dG*dT*dG*d[5mC]*kT*kT*eG; antisense) [compound 548063]”, “548064 (eT*eG*kG*dT*dA*dT*dA*dA*dA*dT*dT*dG*dT*kG*k[5mC]*eT; antisense) [compound 548064]” is higher in “% inhibition” value: 35% for the first, 54% for the second.

Compared with “548065 (eT*eT*kG*dG*dT*dA*dT*dA*dA*dA*dT*dT*dG*kT*kG*e[5mC]; antisense) [compound 548065]”, “548067 (e[5mC]*eA*kG*dT*dT*dG*dG*dT*dA*dT*dA*dA*dA*kT*kT*eG; antisense) [compound 548067]” is lower in “% inhibition” value: 22% for the first, 18% for the second.

Going from “548068 (e[5mC]*eA*kA*d[5mC]*dA*dG*dT*dT*dG*dG*dT*dA*dT*kA*kA*eA; antisense) [compound 548068]” to “548071 (eA*eG*kA*dA*dG*d[5mC]*d[5mC]*d[5mC]*d[5mC]*dA*dT*d[5mC]*d[5mC]*kG*kG*eT; antisense) [compound 548071]”, the “% inhibition” value rises from 0% to 55%.

Compared with “548072 (eT*eT*kT*d[5mC]*dT*d[5mC]*d[5mC]*dT*dT*d[5mC]*dG*dA*dG*kA*kA*eG; antisense) [compound 548072]”, “548073 (e[5mC]*eT*kT*dT*d[5mC]*dT*d[5mC]*d[5mC]*dT*dT*d[5mC]*dG*dA*kG*kA*eA; antisense) [compound 548073]” is lower in “% inhibition” value: 33% for the first, 24% for the second.

Same assay, conditions: Table 19; HepaRG cells, electroporation with 1,000 nM antisense oligonucleotide, approximately 24 hours; PKK mRNA by RT-PCR (RTS3454), relative to untreated control cells

“548074 (e[5mC]*e[5mC]*kT*dT*dT*d[5mC]*dT*d[5mC]*d[5mC]*dT*dT*d[5mC]*dG*kA*kG*eA; antisense) [compound 548074]” and “548075 (eA*e[5mC]*k[5mC]*dT*dT*dT*d[5mC]*dT*d[5mC]*d[5mC]*dT*dT*d[5mC]*kG*kA*eG; antisense) [compound 548075]” are the same in “% inhibition” value: 0% for the first, 0% for the second.

First: 548076 (e[5mC]*eA*k[5mC]*d[5mC]*dT*dT*dT*d[5mC]*dT*d[5mC]*d[5mC]*dT*dT*k[5mC]*kG*eA; antisense) [compound 548076]
Second: 548077 (eA*eT*kT*dT*dG*dT*dT*dA*d[5mC]*d[5mC]*dA*dA*dA*kG*kG*eA; antisense) [compound 548077]
The “% inhibition” value of the first is lower: 26% for the first, 51% for the second.

Going from “548078 (eT*e[5mC]*kT*dT*d[5mC]*dA*dT*dT*dT*dG*dT*dT*dA*k[5mC]*k[5mC]*eA; antisense) [compound 548078]” to “548079 (e[5mC]*e[5mC]*kT*dT*d[5mC]*dT*dT*dT*dA*dT*dA*dG*d[5mC]*k[5mC]*kA*eG; antisense) [compound 548079]”, the “% inhibition” value rises from 36% to 39%.

First: 548080 (e[5mC]*e[5mC]*k[5mC]*dT*dT*d[5mC]*dT*dT*dT*dA*dT*dA*dG*k[5mC]*k[5mC]*eA; antisense) [compound 548080]
Second: 548081 (e[5mC]*e[5mC]*k[5mC]*d[5mC]*dT*dT*d[5mC]*dT*dT*dT*dA*dT*dA*kG*k[5mC]*e[5mC]; antisense) [compound 548081]
The “% inhibition” value of the first is lower: 0% for the first, 64% for the second.

Compared with “548082 (eA*eA*kG*d[5mC]*dA*dT*d[5mC]*dT*dT*dT*dT*d[5mC]*d[5mC]*k[5mC]*k[5mC]*e[5mC]; antisense) [compound 548082]”, “548083 (eA*eG*kG*dG*dA*d[5mC]*d[5mC]*dA*d[5mC]*d[5mC]*dT*dG*dA*kA*kT*e[5mC]; antisense) [compound 548083]” is lower in “% inhibition” value: 42% for the first, 0% for the second.

Compared with “548084 (eA*eA*kG*dG*dG*dA*d[5mC]*d[5mC]*dA*d[5mC]*d[5mC]*dT*dG*kA*kA*eT; antisense) [compound 548084]”, “548085 (antisense eT*eA*kA*dG*dG*dG*dA*d[5mC]*d[5mC]*dA*d[5mC]*d[5mC]*dT*kG*kA*eA) [compound 548085]” is higher in “% inhibition” value: 0% for the first, 8% for the second.

Going from “548086 (antisense e[5mC]*eT*kA*dA*dG*dG*dG*dA*d[5mC]*d[5mC]*dA*d[5mC]*d[5mC]*kT*kG*eA) [compound 548086]” to “548087 (antisense eA*e[5mC]*kT*dA*dA*dG*dG*dG*dA*d[5mC]*d[5mC]*dA*d[5mC]*k[5mC]*kT*eG) [compound 548087]”, the “% inhibition” value falls from 36% to 24%.

Compared with “548088 (antisense eA*eA*k[5mC]*dT*dA*dA*dG*dG*dG*dA*d[5mC]*d[5mC]*dA*k[5mC]*k[5mC]*eT) [compound 548088]”, “548089 (antisense eA*eA*kA*d[5mC]*dT*dA*dA*dG*dG*dG*dA*d[5mC]*d[5mC]*kA*k[5mC]*e[5mC]) [compound 548089]” is higher in “% inhibition” value: 27% for the first, 34% for the second.

Compared with “548090 (antisense e[5mC]*eA*kA*dA*d[5mC]*dT*dA*dA*dG*dG*dG*dA*d[5mC]*k[5mC]*kA*e[5mC]) [compound 548090]”, “548091 (antisense eT*eG*k[5mC]*dA*dA*dA*d[5mC]*dT*dA*dA*dG*dG*dG*kA*k[5mC]*e[5mC]) [compound 548091]” is higher in “% inhibition” value: 46% for the first, 62% for the second.

Going from “548092 (antisense eT*eT*kG*d[5mC]*dA*dA*dA*d[5mC]*dT*dA*dA*dG*dG*kG*kA*e[5mC]) [compound 548092]” to “548093 (antisense eT*eT*kT*dG*d[5mC]*dA*dA*dA*d[5mC]*dT*dA*dA*dG*kG*kG*eA) [compound 548093]”, the “% inhibition” value falls from 30% to 0%.

First: 548094 (antisense eG*eT*kT*dT*dG*d[5mC]*dA*dA*dA*d[5mC]*dT*dA*dA*kG*kG*eG) [compound 548094]
Second: 548095 (antisense eT*eG*kT*dT*dT*dG*d[5mC]*dA*dA*dA*d[5mC]*dT*dA*kA*kG*eG) [compound 548095]
The “% inhibition” value of the first is higher: 74% for the first, 35% for the second.

First: 548096 (antisense eG*eT*kG*dT*dT*dT*dG*d[5mC]*dA*dA*dA*d[5mC]*dT*kA*kA*eG) [compound 548096]
Second: 548097 (antisense eT*eG*k[5mC]*dT*d[5mC]*d[5mC]*d[5mC]*dT*dG*d[5mC]*dG*dG*dG*k[5mC]*kA*e[5mC]) [compound 548097]
The “% inhibition” value of the first is higher: 23% for the first, 2% for the second.

First: 548098 (antisense eA*eG*kA*d[5mC]*dA*d[5mC]*d[5mC]*dA*dG*dG*dT*dT*dG*k[5mC]*kT*e[5mC]) [compound 548098]
Second: 548099 (antisense e[5mC]*eT*k[5mC]*dA*dG*d[5mC]*dG*dA*d[5mC]*dT*dT*dT*dG*kG*kT*eG) [compound 548099]
The “% inhibition” value of the first is lower: 0% for the first, 55% for the second.

First: 548100 (antisense eA*e[5mC]*kT*d[5mC]*dA*dG*d[5mC]*dG*dA*d[5mC]*dT*dT*dT*kG*kG*eT) [compound 548100]
Second: 548101 (antisense eT*eA*k[5mC]*dT*d[5mC]*dA*dG*d[5mC]*dG*dA*d[5mC]*dT*dT*kT*kG*eG) [compound 548101]
The “% inhibition” value of the first is lower: 25% for the first, 47% for the second.

Compared with “548102 (antisense eG*eT*kA*d[5mC]*dT*d[5mC]*dA*dG*d[5mC]*dG*dA*d[5mC]*dT*kT*kT*eG) [compound 548102]”, “548103 (antisense eT*eG*kT*dA*d[5mC]*dT*d[5mC]*dA*dG*d[5mC]*dG*dA*d[5mC]*kT*kT*eT) [compound 548103]” is higher in “% inhibition” value: 58% for the first, 66% for the second.

For “548104 (antisense eA*eT*kG*dT*dA*d[5mC]*dT*d[5mC]*dA*dG*d[5mC]*dG*dA*k[5mC]*kT*eT) [compound 548104]”, the “% inhibition” value was 59%.
